target: T1, HCV NS3/NS4a serine protease (Hepatitis C virus genotype 1b, UniProt P26663); experiment: Spectrophotometric assay for HCV protease inhibitory activity (chromogenic ester substrates); assay type: biochemical, hepatitis C virus (strain 1b); conditions: Ki Rating, Table 2; single chain NS4A21-32-GSGS-NS3 3-181 protease, 30° C., pH 6.5
T1 construct: amino terminus of the NS3 protease domain (amino acids 3-181) with a tetrapeptide linker; made in house; host or cells: E. coli
In short: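 Single-chain NS4A(21-32)-GSGS-NS3(3-181) protease (genotype 1b) from E. coli was used at 1.3 nM in 25 mM MOPS pH 6.5 with 300 mM NaCl, 30 °C and 4% DMSO. Chromogenic ester substrate cleavage was followed as PAP release at 370 nm over 60 min. Ki was derived from vo/vi versus [I] plots assuming competitive inhibition.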

T1 sequence (P26663 1013-1207, looked up, natural form): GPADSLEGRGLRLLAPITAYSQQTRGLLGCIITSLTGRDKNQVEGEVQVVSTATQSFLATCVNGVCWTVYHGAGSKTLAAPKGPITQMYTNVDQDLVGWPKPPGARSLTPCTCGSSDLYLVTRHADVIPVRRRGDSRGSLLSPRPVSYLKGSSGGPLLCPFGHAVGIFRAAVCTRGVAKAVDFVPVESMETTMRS

**Q.** CC1(C)C[C@H]2[C@H](CN(C(=O)[C@@H](NC(=O)OCc3ccccc3)C3CCCCC3)[C@@H]2C(=O)N[C@@H](CC(F)F)C(=O)NCCc2ccccc2)O1 [Example 158] was tested. Which Ki did it give?
**A.** The Ki was greater than 500 nM.

**Q.** For CC(C)[C@H](NC(=O)N[C@H](C(=O)N1C[C@H]2[C@@H]([C@H]1C(=O)N[C@@H](CC(F)F)C(=O)O)C2(C)C)C(C)(C)C)C(=O)OC(C)(C)C [Example 153], which Ki is on record?
**A.** Its Ki is greater than 500 nM.

same assay, conditions: Ki, Table 1; single chain NS4A21-32-GSGS-NS3 3-181 protease, 30° C., pH 6.5

**Q.** For CC(C)(C)[C@H](NC(=O)N[C@H](CN1CCCS1(=O)=O)C(C)(C)C)C(=O)N1C[C@H]2[C@@H](C1C(=O)NC(CC(F)F)C(=O)NCCc1ccc(C(N)=O)cc1Cl)C2(C)C (stereo partly drawn) [Example 111], which Ki is on record?
**A.** Its Ki is 42 nM.

**Q.** CC(C)(C)[C@H](NC(=O)NC1(CS(C)(=O)=O)CCCCC1)C(=O)N1C[C@H]2[C@@H](C1C(=O)NC(CC(F)F)C(=O)NCCc1ccc(C(N)=O)cc1)C2(C)C (stereo partly drawn) [Example 109] was tested. Which Ki did it give?
**A.** The Ki was 38 nM.

same assay, conditions: Ki, Table 3; rating; single chain NS4A21-32-GSGS-NS3 3-181 protease, 30° C., pH 6.5

**Q.** How did the Ki turn out when CN(C[C@@H](NC(=O)N[C@H](C(=O)N1C[C@H]2[C@@H]([C@H]1C(=O)N[C@@H](CC(F)F)C(=O)NC1Cc3ccccc3C1)C2(C)C)C(C)(C)C)C(C)(C)C)S(C)(=O)=O [Example 218] was run?
**A.** The Ki was greater than 500 nM.

**Q.** How did the Ki turn out when CN(C[C@@H](NC(=O)N[C@H](C(=O)N1C[C@H]2[C@@H]([C@H]1C(=O)N[C@@H](CC(F)F)C(=O)N1CCc3ccccc3C1)C2(C)C)C(C)(C)C)C(C)(C)C)S(C)(=O)=O [Example 302] was run?
**A.** The Ki was greater than 500 nM.

**Q.** With COc1ccccc1CCNC(=O)[C@H](CC(F)F)NC(=O)[C@@H]1[C@@H]2[C@H](CN1C(=O)[C@@H](NC(=O)N[C@H](CN(C)S(C)(=O)=O)C(C)(C)C)C(C)(C)C)C2(C)C [Example 269] as the molecule, how does the Ki read?
**A.** The Ki was less than 100 nM.

**Q.** Which Ki does the source give for CN(C[C@@H](NC(=O)N[C@H](C(=O)N1C[C@H]2[C@@H]([C@H]1C(=O)N[C@@H](CC(F)F)C(=O)NCC(c1ccccc1)c1ccccc1)C2(C)C)C(C)(C)C)C(C)(C)C)S(C)(=O)=O [Example 228] here?
**A.** The Ki was greater than 500 nM.

**Q.** Which Ki does the source give for CN(C[C@@H](NC(=O)N[C@H](C(=O)N1C[C@H]2[C@@H]([C@H]1C(=O)N[C@@H](CC(F)F)C(=O)NCCc1c[nH]cn1)C2(C)C)C(C)(C)C)C(C)(C)C)S(C)(=O)=O [Example 244] here?
**A.** The Ki was greater than 500 nM.

Source: patent US7449447B2, “Peptidomimetic NS3-serine protease inhibitors of hepatitis C virus” (priority 2003, dated 2008)
